The compounds below were run against T1, human JAK2 (Homo sapiens, UniProt O60674) (assay: In vitro JAK kinase assay (HTRF, phosphorylation of biotinylated peptide)). Conditions: catalytic domain a.a. 828-1132, 30 μM ATP, 500 nM peptide, room temperature 1 hr; read-out: JAK-2 IC50.
T1 construct: JAK2 (a.a. 828-1132); His tag (N); made in house; host or cells: insect cells (baculovirus)
Type: biochemical
Summary of the method: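 His-tagged human JAK2 catalytic domain (a.a. 828-1132), baculovirus/insect-cell expressed; phosphorylation of 500 nM biotinylated peptide at 30 μM ATP in 50 mM Tris pH 7.8, 100 mM NaCl, 5 mM DTT, 0.01% BSA. 1 h at room temperature, EDTA stop, HTRF read (Eu-Py20/SA-APC); IC50.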

T1 sequence (O60674 828-1132): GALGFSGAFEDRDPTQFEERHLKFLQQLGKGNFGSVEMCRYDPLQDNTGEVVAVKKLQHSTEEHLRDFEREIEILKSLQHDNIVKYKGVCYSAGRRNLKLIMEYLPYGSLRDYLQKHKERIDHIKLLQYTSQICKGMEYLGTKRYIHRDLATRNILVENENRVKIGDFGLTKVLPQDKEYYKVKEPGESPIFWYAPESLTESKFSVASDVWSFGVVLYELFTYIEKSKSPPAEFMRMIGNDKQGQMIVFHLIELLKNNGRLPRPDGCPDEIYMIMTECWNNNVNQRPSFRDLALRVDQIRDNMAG

SMILES	IC50 [nM]
N#CCC1(n2cc(-c3ccnc(Nc4ccc(-n5cccn5)cc4)n3)cn2)CC(C#N)C1 (single isomer, unassigned) [Example 341, 3-(cyanomethyl)-3-[4-(2-{[4-(1H-pyrazol-1-yl)phenyl]amino}pyrimidin-4-yl)-1H-pyrazol-1-yl]cyclobutanecarbonitrile]	< 100
N#CCC1(n2cc(-c3ccnc(Nc4ccc(-c5cnco5)cc4)n3)cn2)CC(C#N)C1 (single isomer, unassigned) [Example 342, 3-(cyanomethyl)-3-[4-(2-{[4-(1,3-oxazol-5-yl)phenyl]amino}pyrimidin-4-yl)-1H-pyrazol-1-yl]cyclobutanecarbonitrile]	< 100
N#CCC1(n2cc(-c3ccnc(Nc4cccc(-c5cnco5)c4)n3)cn2)CC(C#N)C1 (single isomer, unassigned) [Example 343, 3-(cyanomethyl)-3-[4-(2-{[3-(1,3-oxazol-5-yl)phenyl]amino}pyrimidin-4-yl)-1H-pyrazol-1-yl]cyclobutanecarbonitrile]	< 100
N#CCC1(n2cc(-c3ccnc(Nc4ccc(S(=O)(=O)N5CCOCC5)cc4)n3)cn2)CC(C#N)C1 (single isomer, unassigned) [Example 344, 3-(cyanomethyl)-3-[4-(2-{[4-(morpholin-4-ylsulfonyl)phenyl]amino}pyrimidin-4-yl)-1H-pyrazol-1-yl]cyclobutanecarbonitrile]	< 100
N#CCC1(n2cc(-c3ccnc(Nc4cccc(N5CCCC5=O)c4)n3)cn2)CC(C#N)C1 (single isomer, unassigned) [Example 348, 3-(cyanomethyl)-3-[4-(2-{[3-(2-oxopyrrolidin-1-yl)phenyl]amino}pyrimidin-4-yl)-1H-pyrazol-1-yl]cyclobutanecarbonitrile]	< 100
N#CCC1(n2cc(-c3ccnc(Nc4cccc(-c5cnco5)c4)n3)cn2)CN(S(=O)(=O)C2CC2)C1 [Example 18, 2-(1-(cyclopropylsulfonyl)-3-(4-(2-(3-(oxazol-5-yl)phenylamino)pyrimidin-4-yl)-1H-pyrazol-1-yl)azetidin-3-yl)acetonitrile]	< 100
CC(=O)Nc1ccc(Nc2nccc(-c3cnn(C4(CC#N)CN(S(=O)(=O)C5CC5)C4)c3)n2)cc1 [Example 19, N-(4-(4-(1-(3-(cyanomethyl)-1-(cyclopropylsulfonyl)azetidin-3-yl)-1H-pyrazol-4-yl)pyrimidin-2-ylamino)phenyl)acetamide]	< 100
Cc1nccc(-c2cccc(Nc3nccc(-c4cnn(C5(CC#N)CN(S(=O)(=O)C6CC6)C5)c4)n3)c2)n1 [Example 20, 2-(1-(cyclopropylsulfonyl)-3-(4-(2-(3-(2-methylpyrimidin-4-yl)phenylamino)pyrimidin-4-yl)-1H-pyrazol-1-yl)azetidin-3-yl)acetonitrile]	< 100
N#CCC1(n2cc(-c3ccnc(Nc4ccc(-c5cnco5)cc4)n3)cn2)CN(S(=O)(=O)C2CC2)C1 [Example 21, 2-(1-(cyclopropylsulfonyl)-3-(4-(2-(4-(oxazol-5-yl)phenylamino)pyrimidin-4-yl)-1H-pyrazol-1-yl)azetidin-3-yl)acetonitrile]	< 100
N#CCC1(n2cc(-c3ccnc(Nc4ccc(-n5cccn5)cc4)n3)cn2)CCN(S(=O)(=O)C2CC2)CC1 [Example 28, 2-(4-(4-(2-(4-(1H-pyrazol-1-yl)phenylamino)pyrimidin-4-yl)-1H-pyrazol-1-yl)-1-(cyclopropylsulfonyl)piperidin-4-yl)acetonitrile]	< 100
N#CCC1(n2cc(-c3ccnc(Nc4ccc(N5CCOCC5)cc4)n3)cn2)CCN(S(=O)(=O)C2CC2)CC1 [Example 29, 2-(1-(cyclopropylsulfonyl)-4-(4-(2-(4-morpholinophenylamino)pyrimidin-4-yl)-1H-pyrazol-1-yl)piperidin-4-yl)acetonitrile]	< 100
N#CCC1(n2cc(-c3ccnc(Nc4ccc(C(N)=O)cc4)n3)cn2)CCN(S(=O)(=O)C2CC2)CC1 [Example 30, 4-(4-(1-(4-(cyanomethyl)-1-(cyclopropylsulfonyl)piperidin-4-yl)-1H-pyrazol-4-yl)pyrimidin-2-ylamino)benzamide]	< 100

The remaining lines, values ahead:

IC50 [nM]	SMILES
< 100	CO[C@H]1CCN(C(=O)c2ccc(Nc3nccc(-c4cnn(C5(CC#N)CC(C#N)C5)c4)n3)cc2)C1 (single isomer, unassigned) [Example 296]
< 100	CC(=O)N1CCN(C(=O)c2ccc(Nc3nccc(-c4cnn(C5(CC#N)CC(C#N)C5)c4)n3)cc2)CC1 (single isomer, unassigned) [Example 298, 3-(4-(2-(4-(4-acetylpiperazine-1-carbonyl)phenylamino)pyrimidin-4-yl)-1H-pyrazol-1-yl)-3-(cyanomethyl)cyclobutanecarbonitrile]
< 100	N#CCC1(n2cc(-c3ccnc(Nc4ccc(C(=O)N5CCC(O)CC5)cc4)n3)cn2)CC(C#N)C1 (single isomer, unassigned) [Example 301, 3-(cyanomethyl)-3-(4-(2-(4-(4-hydroxypiperidine-1-carbonyl)phenylamino)pyrimidin-4-yl)-1H-pyrazol-1-yl)cyclobutanecarbonitrile]
< 100	N#CCC1(n2cc(-c3ccnc(Nc4ccc(OCCN5CCCC5)cc4)n3)cn2)CC(C#N)C1 (single isomer, unassigned) [Example 307, 3-(cyanomethyl)-3-[4-(2-{[4-(2-pyrrolidin-1-ylethoxy)phenyl]amino}pyrimidin-4-yl)-1H-pyrazol-1-yl]cyclobutanecarbonitrile]
< 100	N#CCC1(n2cc(-c3ccnc(Nc4ccc(N5CCCCC5=O)cc4)n3)cn2)CC(C#N)C1 (single isomer, unassigned) [Example 336, 3-(cyanomethyl)-3-[4-(2-{[4-(2-oxopiperidin-1-yl)phenyl]amino}pyrimidin-4-yl)-1H-pyrazol-1-yl]cyclobutanecarbonitrile]
< 100	N#CCC1(n2cc(-c3ccnc(Nc4ccc(N5CCCOC5=O)cc4)n3)cn2)CC(C#N)C1 (single isomer, unassigned) [Example 337, 3-(cyanomethyl)-3-[4-(2-{[4-(2-oxo-1,3-oxazinan-3-yl)phenyl]amino}pyrimidin-4-yl)-1H-pyrazol-1-yl]cyclobutanecarbonitrile]
< 100	N#CCC1(n2cc(-c3ccnc(Nc4ccc(N5CCOCC5=O)cc4)n3)cn2)CC(C#N)C1 (single isomer, unassigned) [Example 338, 3-(cyanomethyl)-3-[4-(2-{[4-(3-oxomorpholin-4-yl)phenyl]amino}pyrimidin-4-yl)-1H-pyrazol-1-yl]cyclobutanecarbonitrile]
< 100	N#CCC1(n2cc(-c3ccnc(Nc4ccc(N5CCOC5=O)cc4)n3)cn2)CC(C#N)C1 (single isomer, unassigned) [Example 339, 3-(cyanomethyl)-3-[4-(2-{[4-(2-oxo-1,3-oxazolidin-3-yl)phenyl]amino}pyrimidin-4-yl)-1H-pyrazol-1-yl]cyclobutanecarbonitrile]
< 100	N#CCC1(n2cc(-c3ccnc(Nc4ccc(N5CCCC5=O)cc4)n3)cn2)CC(C#N)C1 (single isomer, unassigned) [Example 340, 3-(cyanomethyl)-3-[4-(2-{[4-(2-oxopyrrolidin-1-yl)phenyl]amino}pyrimidin-4-yl)-1H-pyrazol-1-yl]cyclobutanecarbonitrile]
